Data set [1] is described as follows: Cytotoxicity against human 9KB cells after 3 days. It counts as functional. The conditions noted are these: 72 h, read-out: ID50 (the source's name).
The subject of data set [2] is P388. Nature of the data set: Cytotoxicity against mouse doxorubicin-sensitive P388 cells after 3 days. As to conditions: P388, 72 h, read-out: ID50 (the source's name). It counts as functional.
Data set [3] has as its system P388. The experiment in a line: Cytotoxicity against mouse doxorubicin-resistant P388 cells after 3 days. The conditions noted are these: P388, 72 h, read-out: ID50 (the source's name). It counts as functional.
In data set [4] the test system is Mus musculus. Nature of the data set: Toxicity in mouse B16 cells xenografted in BDF1 mouse at 10 mg/kg, ip administered from day 1 to 5 after transplantation. As to conditions: in vivo. Also on record: dose 10 mg/kg, route intraperitoneal. It counts as organism-based.
Data set [5] relates to M5076. Nature of the data set: Antitumor activity in mouse M5076 cells xenografted in BDF1 mouse at 0.31 mg/kg, ip administered from day 1 to 9 after transplantation. It counts as functional. The conditions noted are these: route intraperitoneal.
Data set [6] concerns M5076. The experiment in a line: Antitumor activity in mouse M5076 cells xenografted in BDF1 mouse at 0.63 mg/kg, ip administered from day 1 to 9 after transplantation. The conditions noted are these: route intraperitoneal. It counts as functional.
For data set [7], the system named is M5076. The experiment in a line: Antitumor activity in mouse M5076 cells xenografted in BDF1 mouse at 1.25 mg/kg, ip administered from day 1 to 9 after transplantation. The conditions noted are these: route intraperitoneal. It counts as functional.
Data set [8] deals with M5076. The experiment in a line: Antitumor activity in mouse M5076 cells xenografted in BDF1 mouse at 2.50 mg/kg, ip administered from day 1 to 9 after transplantation. It counts as functional. The conditions noted are these: dose 2.5 mg/kg; route intraperitoneal.
Data set [9] concerns M5076. Nature of the data set: Antitumor activity in mouse M5076 cells xenografted in BDF1 mouse at 5 mg/kg, ip administered from day 1 to 9 after transplantation. It counts as functional. The conditions noted are these: route intraperitoneal.
Data set [10] deals with Mus musculus. The experiment in a line: Toxicity in mouse M5076 cells xenografted in BDF1 mouse at 10 mg/kg, ip administered from day 1 to 9 after transplantation. More on the design: dose 10 mg/kg, route intraperitoneal. As to conditions: in vivo. It counts as organism-based.
Data set [11] has as its system B16. Nature of the data set: Antitumor activity in mouse B16 cells xenografted in BDF1 mouse at 0.62 mg/kg, ip administered from day 1 to 5 after transplantation. It counts as functional. As to conditions: route intraperitoneal.
Data set [12] concerns B16. The experiment in a line: Antitumor activity in mouse B16 cells xenografted in BDF1 mouse at 1.25 mg/kg, ip administered from day 1 to 5 after transplantation. It counts as functional. The conditions noted are these: route intraperitoneal.
Data set [13] relates to B16. The experiment in a line: Antitumor activity in mouse B16 cells xenografted in BDF1 mouse at 2.50 mg/kg, ip administered from day 1 to 5 after transplantation. It counts as functional. As to conditions: dose 2.5 mg/kg; route intraperitoneal.
In data set [14] the test system is B16. Nature of the data set: Antitumor activity in mouse B16 cells xenografted in BDF1 mouse at 5 mg/kg, ip administered from day 1 to 5 after transplantation. It counts as functional. The conditions noted are these: route intraperitoneal.

Molecules are shown by their SMILES. Converted amounts (≈) assume the structure as drawn.

Consider `CC(=O)OC1(C)CC(=O)c2c(c(C/C=C(\C)CCC=C(C)C)c3cc(O)cc(O)c3c2O)C1` (stereo unspecified) [VISMIONE G], for which the IC50 worked out at 3.2 mg/L (≈ 7.07 µM) in data set [1], 30 mg/L (≈ 66.3 µM) in [2] and 30 mg/L (≈ 66.3 µM) in data set [3].

As to `CC(=O)OC1(C)CC(=O)c2c(cc3cc(O)c(C/C=C(\C)CCC=C(C)C)c(O)c3c2O)C1` (stereo unspecified) [ACETYLVISMIONE F], the figures for the IC50 in data set [1], in [2] and in data set [3] were 1 mg/L (≈ 2.21 µM), 2.7 mg/L (≈ 5.97 µM) and 3 mg/L (≈ 6.63 µM), respectively.

With `COc1cccc2c1C(=O)c1c(O)c3c(c(O)c1C2=O)C[C@@](O)(C(=O)CO)C[C@@H]3O[C@H]1C[C@H](N)[C@H](O)[C@H](C)O1` [DOXORUBICIN], the results for the IC50 in [1], in data set [2] and in [3] were 0.2 mg/L (≈ 0.368 µM), 0.0055 mg/L (≈ 0.0101 µM) and 0.5 mg/L (≈ 0.92 µM), respectively.

For the molecule `CC(=O)OC1(C)CC(=O)c2c(cc3cc(O)c(CC=C(C)C)c(O)c3c2O)C1` (stereo unspecified) [VISMIONE C], the IC50 in data set [1] was determined as 2.1 mg/L (≈ 5.46 µM).

With `CC(=O)OC1(C)CC(=O)c2c(cc3cc(OC/C=C(\C)CCC=C(C)C)cc(O)c3c2O)C1` (stereo unspecified) [ACETYLVISMIONE D], the IC50 was found to be 5 mg/L (≈ 11 µM) in [1] and 1.8 mg/L (≈ 3.98 µM) in [2].

By T/C is commonly meant the result in the treated group divided by that in the control group, in per cent. In the case of `COc1cc2cc3c(c(O)c2c(O)c1/C=C/C(C)C)C(=O)CC(C)(OC(C)=O)C3` (stereo unspecified) [VISMIONE A], the T/C entry in data set [4] is “Toxic”; in [5], 111%; in [6] it was 115%; in data set [7], 119%; in [8] it was 140%; in [9], 145%. For the same molecule, the T/C result in [10] is “Toxic”; in data set [11], 98%; in [12] it was 112%; in data set [13], 115%; in data set [14], 148%. In addition, the IC50 is 0.25 mg/L (≈ 0.627 µM) in data set [1], 0.45 mg/L (≈ 1.13 µM) in [2] and 1.1 mg/L (≈ 2.76 µM) in [3].

As for `COc1cc2cc3c(c(O)c2c2c1C=CC(C)(C)O2)C(=O)CC(C)(O)C3` (stereo unspecified) [VISMIONE B], the IC50 in [1] was 10 mg/L (≈ 28.2 µM); in data set [2], 10 mg/L (≈ 28.2 µM); in [3], 3 mg/L (≈ 8.46 µM).

In the case of `COc1cc2cc3c(c(O)c2c(O)c1/C=C/C(C)C)C(=O)CC(C)(O)C3` (stereo unspecified) [DEACETYLVISMIONE A], the IC50 was 0.7 mg/L (≈ 1.96 µM) in data set [1], 0.4 mg/L (≈ 1.12 µM) in [2] and 0.3 mg/L (≈ 0.842 µM) in data set [3].

As for `CC(C)=CCC/C(C)=C/COc1cc(O)c2c(O)c3c(cc2c1)CC(C)(O)CC3=O` (stereo unspecified) [VISMIONE D], the IC50 was found to be 14 mg/L (≈ 34.1 µM) in data set [1], 14 mg/L (≈ 34.1 µM) in [2] and 18 mg/L (≈ 43.8 µM) in data set [3].

`CC(C)=CCC/C(C)=C/Cc1c(O)cc2cc3c(c(O)c2c1O)C(=O)CC(C)(O)C3` (stereo unspecified) [VISMIONE F]: the IC50 in data set [1] stood at 2.8 mg/L (≈ 6.82 µM); in data set [2], 2 mg/L (≈ 4.87 µM); in data set [3], 13.5 mg/L (≈ 32.9 µM).

On to `COc1cc2cc3c(c(O)c2c2c1C=CC(C)(C)O2)C(=O)CC(C)(OC(C)=O)C3` (stereo unspecified) [ACETYLVISMIONE B], for which the IC50 in data set [1] is 42 mg/L (≈ 106 µM); in [2], 5 mg/L (≈ 12.6 µM); in [3] it was 2 mg/L (≈ 5.04 µM).

Values taken from ChEMBL document CHEMBL1149018, “Cytotoxic and antitumor activity of vismiones isolated from vismieae” (J Nat Prod, 1986).
